Drawing on PubChem BioAssay AID1259408 (Genetic Toxicology Data Bank (GENE-TOX), 2018), this text covers mutagenic call and call for 24 compounds.

The subject of the data set is GENE-TOX genotoxicity assays, various organisms and cells. Briefly: GENE-TOX mutagenicity studies. As to conditions: for call: Assay Type: In vivo carcinogenicity studies, Assay Code: CCG+.
Where [1] appears, read: Species/Cell Type: Nonhuman, Evaluation Type: Evaluation A (Pre-1980).
Where [2] appears, read: Species/Cell Type: Salmonella typhimurium (one or more of the five standard strains: TA98, TA100, TA1535, TA1537, and TA1538), Assay Type: Histidine reverse gene mutation, Ames assay, Assay Code: SAL+*, Activation: With metabolic activation, Evaluation Type: Evaluation A (Pre-1980).
Setting [3] is: Species/Cell Type: Salmonella typhimurium, Assay Type: Forward and reverse gene mutation, body fluid assay, Assay Code: BFU+, Evaluation Type: Evaluation A (Pre-1980).
Where [4] appears, read: Species/Cell Type: Drosophila melanogaster, Assay Type: Sex-linked recessive lethal gene mutation, Assay Code: SRL+, Evaluation Type: Evaluation A (Pre-1980).
Setting [5] is: Species/Cell Type: Bacillus subtilis (H17 vs M45), Assay Type: Rec-assay, spot test, DNA effects (bacterial DNA repair), Assay Code: REWT, Evaluation Type: Evaluation A (Pre-1980).
Setting [6] is: Species/Cell Type: Allium cepa, Assay Type: Chromosome aberrations, Assay Code: ALC+D, Dose Response: With dose response, Evaluation Type: Evaluation A (Pre-1980).
Where [7] appears, read: Species/Cell Type: Saccharomyces cerevisiae, Assay Type: Mitotic recombination or gene conversion, Assay Code: YEC+, Evaluation Type: Evaluation A (Pre-1980).
Where [8] appears, read: Species/Cell Type: Nonhuman, Assay Type: Sister-chromatid exchange (SCE) in vitro, Assay Code: SC2+D, Dose Response: With dose response, Evaluation Type: Evaluation B (Post-1980).
Setting [9] is: Species/Cell Type: Mammalian polychromatic erythrocytes, Assay Type: Micronucleus test, chromosome aberrations, Assay Code: MNTT, Evaluation Type: Evaluation B (Post-1980).

Active and inactive are the calls of the source. How the calls were made is not given here.

On to `CC(=O)Nc1ccc2c(c1)Cc1ccccc1-2`, for which the mutagenic call by setting is: (Species/Cell Type: Chinese hamster lung (V79) cells, Assay Type: Forward gene mutation at the HPRT or ouabain locus, Assay Code: V79-, Evaluation Type: Evaluation A (Pre-1980)) “inactive; negative”; (Species/Cell Type: Chinese hamster ovary (CHO) cells, Assay Type: Forward gene mutation at the HPRT locus, Assay Code: CHO+*, Activation: With metabolic activation, Evaluation Type: Evaluation B (Post-1980)) “active; positive”; (Species/Cell Type: Drosophila melanogaster, Assay Type: Sex-linked recessive lethal gene mutation, Assay Code: SRLT, Evaluation Type: Evaluation A (Pre-1980)) “no conclusion”; (Species/Cell Type: Escherichia coli polA (W3110 vs P3478), Assay Type: Rec-assay, DNA effects (bacterial DNA repair), Assay Code: RE2+, Evaluation Type: Evaluation A (Pre-1980)) “active; positive”; (Species/Cell Type: Escherichia coli polA (W3119 vs P3478), Assay Type: Rec-assay, DNA effects (bacterial DNA repair), Assay Code: RE1-, Evaluation Type: Evaluation A (Pre-1980)) “inactive; negative”; (Species/Cell Type: Fischer rat embryo (RLV/1706) cells, Assay Type: Cell transformation, viral enhanced, Assay Code: CTRT, Evaluation Type: Evaluation A (Pre-1980)) “no conclusion”. The mutagenic call runs as follows: (Species/Cell Type: Human diploid fibroblasts, Assay Type: Unscheduled DNA synthesis (UDS) in vitro, DNA effects, Assay Code: UDHT, Evaluation Type: Evaluation A (Pre-1980)) “no conclusion”; (Species/Cell Type: Human lymphocytes, Assay Type: Sister-chromatid exchange (SCE) in vitro, Assay Code: SCL-, Evaluation Type: Evaluation A (Pre-1980)) “inactive; negative”; (Species/Cell Type: Human, Assay Type: Sister-chromatid exchange (SCE) in vitro, Assay Code: SC1+D, Dose Response: With dose response, Evaluation Type: Evaluation B (Post-1980)) “active; positive”; (Species/Cell Type: Human, Assay Type: Sister-chromatid exchange (SCE) in vitro, Assay Code: SC1-, Evaluation Type: Evaluation A (Pre-1980)) “inactive; negative”; (Species/Cell Type: Mammalian polychromatic erythrocytes, Assay Type: Micronucleus test, chromosome aberrations, Assay Code: MNT+, Evaluation Type: Evaluation A (Pre-1980)) “active; positive”; (Species/Cell Type: Mouse (BALB/c-3T3) cells, Assay Type: Cell transformation, Assay Code: CTB+D, Dose Response: With dose response, Evaluation Type: Evaluation A (Pre-1980)) “active; positive”. The mutagenic call was “active; positive” (Species/Cell Type: Mouse lymphoma (L5178Y) cells, Assay Type: Forward gene mutation at the thymidine kinase (TK) locus, chromosome aberrations, Assay Code: L51+*, Activation: With metabolic activation, Evaluation Type: Evaluation A (Pre-1980)); “inactive; negative” (Species/Cell Type: Mouse, Sex: Male, Assay Type: Sperm morphology, Assay Code: SPI-, Evaluation Type: Evaluation A (Pre-1980)); “active; positive” (Species/Cell Type: Nonhuman, Assay Type: Sister-chromatid exchange (SCE) in vitro, Assay Code: SC2+, Evaluation Type: Evaluation A (Pre-1980)); “active; positive” (Species/Cell Type: Nonhuman, Assay Type: Sister-chromatid exchange (SCE) in vivo, Assay Code: SC3+D, Dose Response: With dose response, Evaluation Type: Evaluation B (Post-1980)); “no conclusion” (Species/Cell Type: Nonhuman, Assay Type: Sister-chromatid exchange (SCE) in vivo, Assay Code: SC3T, Evaluation Type: Evaluation A (Pre-1980)); “active; positive” (Species/Cell Type: Rat primary hepatocytes, Assay Type: Unscheduled DNA synthesis (UDS) in vitro, DNA effects, Assay Code: UDP+, Evaluation Type: Evaluation A (Pre-1980)). Moreover, the mutagenic call (Species/Cell Type: Saccharomyces cerevisiae, Assay Type: Mitotic recombination or gene conversion, Assay Code: YEC-*, Activation: With metabolic activation, Evaluation Type: Evaluation A (Pre-1980)) was “inactive; negative”; the mutagenic call (Species/Cell Type: Saccharomyces cerevisiae, Assay Type: Mitotic recombination or gene conversion, Assay Code: YEH-*, Activation: With metabolic activation, Evaluation Type: Evaluation A (Pre-1980)) is “inactive; negative”; the mutagenic call under setting [2] is “active; positive”; the mutagenic call under setting [3] was “active; positive”; the mutagenic call (Species/Cell Type: Salmonella typhimurium, Assay Type: Forward and reverse gene mutation, host-mediated assay, Assay Code: HMA+, Evaluation Type: Evaluation A (Pre-1980)) is “active; positive”; the mutagenic call (Species/Cell Type: Syrian hamster embryo (SA7/SHE) cells, Assay Type: Cell transformation, viral enhanced, Assay Code: CT7-, Evaluation Type: Evaluation A (Pre-1980)) was “inactive; negative”. Also, for the setting “Species/Cell Type: Syrian hamster embryo (SHE) cells, Assay Type: Cell transformation, clonal assay, Assay Code: CTC+D*, Activation: With metabolic activation, Dose Response: With dose response, Evaluation Type: Evaluation A (Pre-1980)”, the mutagenic call is “active; positive”. Further, the call under setting [1] is “active; positive”.

As to `CCN(O)CC`, the mutagenic call by setting is: under setting [4], “active; positive”; (Species/Cell Type: Human diploid fibroblasts, Assay Type: Unscheduled DNA synthesis (UDS) in vitro, DNA effects, Assay Code: UDH+, Evaluation Type: Evaluation A (Pre-1980)) “active; positive”; (Species/Cell Type: Mammalian polychromatic erythrocytes, Assay Type: Micronucleus test, chromosome aberrations, Assay Code: MNTT, Evaluation Type: Evaluation A (Pre-1980)) “no conclusion”; (Species/Cell Type: Rodents, Sex: Male, Assay Type: Dominant lethal test, Assay Code: DLTT, Evaluation Type: Evaluation A (Pre-1980)) “no conclusion”.

With `O=S(=O)(O)c1cc(O)c2c(O)c(N=Nc3ccccc3)c(S(=O)(=O)O)cc2c1`, the mutagenic call under setting [5] was “no conclusion”.

Regarding `CCC(=O)O`, where the note is “Species/Cell Type: Mammalian polychromatic erythrocytes, Assay Type: Micronucleus test, chromosome aberrations, Assay Code: MNT-, Evaluation Type: Evaluation B (Post-1980)”, the mutagenic call was “inactive; negative”.

Consider `O=S(=O)(O)c1ccc2c(N=Nc3cccc4ccccc34)c(O)c(S(=O)(=O)O)cc2c1`, for which, under setting [5], the mutagenic call is given as “no conclusion”.

`CC(C(=O)O)c1ccc(C(=O)c2ccccc2)s1` (centres undefined): for the setting “Species/Cell Type: Human lymphocytes, Assay Type: Sister-chromatid exchange (SCE) in vivo, Assay Code: SCY+, Evaluation Type: Evaluation B (Post-1980)”, the mutagenic call is “active; positive”.

In the case of `[N-]=[N+]=Nc1ccc2c(c1)Cc1ccccc1-2`, the mutagenic call (Species/Cell Type: Mouse (C3H/10T1/2) cells, Assay Type: Cell transformation, Assay Code: CTH-, Evaluation Type: Evaluation A (Pre-1980)) was “inactive; negative”.

As for `C/[N+]([O-])=N/CO`, the mutagenic call (Species/Cell Type: Chinese hamster lung (V79) cells, Assay Type: Forward gene mutation at the HPRT or ouabain locus, Assay Code: V79+, Evaluation Type: Evaluation A (Pre-1980)) was “active; positive”; the mutagenic call under setting [4] was “active; positive”; the mutagenic call under setting [3] is “active; positive”; the mutagenic call (Species/Cell Type: Syrian hamster embryo (SHE) cells, Assay Type: Cell transformation, clonal assay, Assay Code: CTC+, Evaluation Type: Evaluation A (Pre-1980)) is “active; positive”. The call under setting [1] was “active; positive”.

In the case of `Oc1cccc2ncccc12`, under setting [2], the mutagenic call is “active; positive”.

As for `O[C@@H]1[C@@H](O)[C@@H](O)c2c(cc3ccc4cccc5ccc2c3c45)[C@H]1O`, under “Species/Cell Type: Chinese hamster lung (V79) cells, Assay Type: Forward gene mutation at the HPRT or ouabain locus, Assay Code: V79-*, Activation: With metabolic activation, Evaluation Type: Evaluation A (Pre-1980)”, the mutagenic call was “inactive; negative”.

Consider `S=C(S)NCCNC(=S)S`, for which the mutagenic call under setting [6] was “active; positive”.

For `C=CCN(N=O)C(N)=O`, the mutagenic call runs as follows: (Species/Cell Type: Arabidopsis species, Assay Type: Gene mutation, Assay Code: ARM+D, Dose Response: With dose response, Evaluation Type: Evaluation A (Pre-1980)) “active; positive”; under setting [7], “active; positive”.

`COc1ccc2ccc(=O)oc2c1`: the mutagenic call under setting [6] is “active; positive”.

On to `NC(=O)C(=Cc1ccc([N+](=O)[O-])o1)c1ccccc1`, for which the mutagenic call (Species/Cell Type: Salmonella typhimurium (one or more of the five standard strains: TA98, TA100, TA1535, TA1537, and TA1538), Assay Type: Histidine reverse gene mutation, Ames assay, Assay Code: SAL+, Evaluation Type: Evaluation A (Pre-1980)) is “active; positive”.

Consider `NCCCCNCCCN`, for which the mutagenic call (Species/Cell Type: Salmonella typhimurium (one or more of the five standard strains: TA98, TA100, TA1535, TA1537, and TA1538), Assay Type: Histidine reverse gene mutation, Ames assay, Assay Code: SALT, Evaluation Type: Evaluation A (Pre-1980)) was “no conclusion”.

With `CC(=O)OCCBr`, the mutagenic call (Species/Cell Type: Escherichia coli polA (W3119 vs P3478), Assay Type: Rec-assay, DNA effects (bacterial DNA repair), Assay Code: RE1+, Evaluation Type: Evaluation A (Pre-1980)) is “active; positive”.

For `Cc1cc2cc3ccccc3cc2c2ccccc12`, the mutagenic call was “active; positive” under setting [8] and “active; positive” under setting [2].

With `CN(C)c1ccc2cc3ccc(=[N+](C)C)cc-3sc2c1`, the mutagenic call (Species/Cell Type: Saccharomyces cerevisiae, Assay Type: Reverse gene mutation, Assay Code: YER-, Evaluation Type: Evaluation A (Pre-1980)) was “inactive; negative”.

Regarding `CN(N=O)C(=O)Oc1cccc2c1OC(C)(C)C2`, the mutagenic call under setting [8] was “active; positive”.

On to `O=NN(CCCl)C(=O)NCCNC(=O)N(CCCl)N=O`, for which the mutagenic call is “active; positive” under setting [4] and “active; positive” under setting [7].

For `C[N+](=O)[O-]`, the mutagenic call under setting [9] is on record as “no conclusion”.

Consider `C=COCC`, for which, for the setting “Species/Cell Type: Nonhuman, Assay Type: Sister-chromatid exchange (SCE) in vitro, Assay Code: SC2+, Evaluation Type: Evaluation B (Post-1980)”, the mutagenic call is “active; positive”.

As for `Cn1cnc2ncn(C)c2c1=O`, the mutagenic call (Species/Cell Type: Allium cepa, Assay Type: Chromosome aberrations, Assay Code: ALC-, Evaluation Type: Evaluation A (Pre-1980)) was “inactive; negative”.

Regarding `O=C1NC(=O)C(c2ccc(O)cc2)(c2ccc(O)cc2)N1`, the mutagenic call under setting [9] is given as “no conclusion”.
